Measured values published in patent publication EP2762573A1, “In vitro method for determining cholestatic properties of a compound” (priority 2013, dated 2014).
One block for each molecule: values may come before it.

Assays:
Details in all cases: male, C57BL/6, mouse
Bcl2l11 = assay: Biomarkers validation by q-pcr in precision cut liver slices: Bcl2l11 expression
Protocol: (§1) 23-weeks old male C57BL/6 mice were obtained from Harlan (Horst, The Netherlands). Animals were kept for 1 week at a housing temperature of 22°C and at a relative humidity of 30-70%. The lighting cycle was 12-h light and 12-h dark. At the age of 24 weeks animals were sacrificed by an overdose of isoflurane. The treatment protocol was approved by the Ethical Committee for Animal Experiments at Wageningen University.
(§2) Immediately after the animals were killed the liver was perfused with PBS and placed in ice-cold Krebs-Henseleit buffer (KHB) (pH 7.4, supplemented with 11 mM glucose). Liver tissue was transported to the laboratory within approximately 30 min and cylindrical liver cores were produced using a surgical biopsy punch with diameter of 5 mm (KAI, SynErgo Europe, Romania). Liver cores were placed in a Krumdieck tissue slicer (Alabama Research and Development, Munford, AL) filled with ice-cold KHB aerated with carbogen and supplemented with 11 mM glucose. Precesion cut liver slices (PCLS) with a diameter of 5 mm, a thickness of 0.2 mm and a weight of approximately 10 mg were prepared. Immediately after preparation, slices were transferred into culture plates filled with pre-warmed (37 degrees C) Williams E medium (WEM). Three liver slices were pre-cultured in one well of the 6-well plate filled with 4 ml of WEM for one hour with continuous shaking (70 rpm). Incubations were performed in an oxygen controlled incubator (Galaxy 48 R New Brunswick, Nijmegen, the Netherlands) at 80% of oxygen; 5% CO2 and the remaining gas volume was filled up to […] with N2. After one hour of pre-incubation, media were removed and replaced with fresh media containing test compounds or appropriate solvents. After incubations, samples were snap-frozen in liquid nitrogen and stored in -80 °C for further analysis. Samples dedicated to histology were stored in 4 % formaldehyde at room temperature.
(§3) PCLS were incubated at the same conditions as described above. Slices were exposed for 24 and 48 hours to one concentration of the tested compounds or controls. Concentrations used in the exposure experiments were preselected in the dose selection experiments for each drug individually. […] For the necrotic compounds: 1000 uM acetaminophen, 5 µM paraquat and 1000 uM isoniazid. Liver slices obtained from five mice were used in five toxic compound or control exposure experiments performed at the same time. Dose selection experiments and exposure experiments were performed at different days. Therefore, ATP, LDH, and protein assays were performed again for the exposure experiments to confirm that the selected doses did also not affect slice viability in these experiments.
(§4) In further studies, expression of ten candidate biomarkers in PCLS was analyzed by q-pcr using the Biorad CFX96 TM Real-Time Detection System (Bio-Rad, Veenendaal, The Netherlands) with the following cycling conditions: 15 min 95°C followed by 40 cycles of 15s 95 °C and 1 min 60 °C. Reactions were performed in 10 µl and contained 20 ng cDNA, 1x TaqMan PCR Master Mix (Applied Biosystems, Foster City, CA), and depending on the analysed gene, 250 nM probe and 900 nM primer (for actin b) or 1xTaqMan gene expression assay (for the remaining genes) (Applied Biosystems, foster City, CA).

Parp16 = assay: Biomarkers validation by q-pcr in precision cut liver slices: Parp16 expression
Protocol: as §1, §2, §3, §4

Mras = assay: Biomarkers validation by q-pcr in precision cut liver slices: Mras expression
Protocol: as §1, §2, §3, §4

Myo1e = assay: Biomarkers validation by q-pcr in precision cut liver slices: Myo1e expression
Protocol: as §1, §2, §3, §4

Nme6 = assay: Biomarkers validation by q-pcr in precision cut liver slices: Nme6 expression
Protocol: as §1, §2, §3, §4

ABCG5 = assay: Biomarkers validation by q-pcr in precision cut liver slices: ABCG5 expression
Protocol: as §1, §2, §3, §4

ABCG8 = assay: Biomarkers validation by q-pcr in precision cut liver slices: ABCG8 expression
Protocol: as §1, §2, §3, §4

SERPINE1 = assay: Biomarkers validation by q-pcr in precision cut liver slices: SERPINE1 expression
Protocol: as §1, §2, §3, §4

BAAT = assay: Biomarkers validation by q-pcr in precision cut liver slices: BAAT expression
Protocol: as §1, §2, §3, §4

KLF15 = assay: Biomarkers validation by q-pcr in precision cut liver slices: KLF15 expression
Protocol: as §1, §2, §3, §4

PCLS = assay: Cytotoxicity analysis - dose selection experiments (LDH, ATP, protein assay)
Protocol: as §1, §2, §3

*fold change 1, gene expression level Bcl2111 (Bcl2l11): 1,9
*fold change 2, gene expression level Bcl2111 (Bcl2l11): 1,7
*fold change 3, gene expression level Bcl2111 (Bcl2l11): 1,3
*fold change 4, gene expression level Bcl2111 (Bcl2l11): -1,2
*fold change 5, gene expression level Bcl2111 (Bcl2l11): -1,2
*fold change 1, gene expression level Parp 16 (Parp16): -1,0
*fold change 2, gene expression level Parp 16 (Parp16): -1,0
*fold change 3, gene expression level Parp 16 (Parp16): 1,2
*fold change 4, gene expression level Parp 16 (Parp16): -2,3
*fold change 5, gene expression level Parp 16 (Parp16): -1,8
*fold change 1, gene expression level Mras (Mras): 1,7
*fold change 2, gene expression level Mras (Mras): -1,1
*fold change 3, gene expression level Mras (Mras): 1,3
*fold change 4, gene expression level Mras (Mras): -1,3
*fold change 5, gene expression level Mras (Mras): -1,3
*fold change 1, gene expression level Myo 1e (Myo1e): 1,5
*fold change 2, gene expression level Myo 1e (Myo1e): 1,3
*fold change 3, gene expression level Myo 1e (Myo1e): 1,3
*fold change 4, gene expression level Myo 1e (Myo1e): -1,3
*fold change 5, gene expression level Myo 1e (Myo1e): 1,1
*fold change 1, gene expression level Nme6 (Nme6): 1,3
*fold change 2, gene expression level Nme6 (Nme6): 1,2
*fold change 3, gene expression level Nme6 (Nme6): 1,1
*fold change 4, gene expression level Nme6 (Nme6): -1,3
*fold change 5, gene expression level Nme6 (Nme6): -1,1
*fold change 1, gene expression level ABCG5 (ABCG5): 2,0
*fold change 2, gene expression level ABCG5 (ABCG5): 3,0
*fold change 3, gene expression level ABCG5 (ABCG5): 1,1
*fold change 4, gene expression level ABCG5 (ABCG5): 2,0
*fold change 5, gene expression level ABCG5 (ABCG5): 2,0
*fold change 1, gene expression level ABCG8 (ABCG8): 2,1
*fold change 2, gene expression level ABCG8 (ABCG8): 2,8
*fold change 3, gene expression level ABCG8 (ABCG8): 1,0
*fold change 4, gene expression level ABCG8 (ABCG8): 2,3
*fold change 5, gene expression level ABCG8 (ABCG8): 1,9
*fold change 1, gene expression level SERPINE1 (SERPINE1): 5,4
*fold change 2, gene expression level SERPINE1 (SERPINE1): 1,9
*fold change 3, gene expression level SERPINE1 (SERPINE1): 1,4
*fold change 4, gene expression level SERPINE1 (SERPINE1): -1,4
*fold change 5, gene expression level SERPINE1 (SERPINE1): -2,9
*fold change 1, gene expression level BAAT (BAAT): 1,8
*fold change 2, gene expression level BAAT (BAAT): 1,7
*fold change 3, gene expression level BAAT (BAAT): 1,1
*fold change 4, gene expression level BAAT (BAAT): -1,3
*fold change 5, gene expression level BAAT (BAAT): 1,3
*fold change 1, gene expression level KLF15 (KLF15): 1,2
*fold change 2, gene expression level KLF15 (KLF15): 2,4
*fold change 3, gene expression level KLF15 (KLF15): 1,0
*fold change 4, gene expression level KLF15 (KLF15): 1,1
*fold change 5, gene expression level KLF15 (KLF15): 1,2
SMILES: NNC(=O)c1ccncc1 [ISONZ, isoniazid]
highest concentration that did not cause significant increase of toxicity (PCLS): 1000 µM

SMILES: CCCC(CCC)C(=O)O [VA, valproic acid]
highest concentration that did not cause significant increase of toxicity (PCLS): 200 µM
